We go through 36 molecules from ChEMBL document CHEMBL1641363, “Fragment-based discovery of 6-substituted isoquinolin-1-amine based ROCK-I inhibitors” (Bioorg Med Chem Lett, 2011).

The target in data set [1] is T1, Rho-associated protein kinase 1 (Homo sapiens, UniProt Q13464). Nature of the data set: Inhibition of ROCK-1 by Immobilized metal ion affinity-based fluorescence polarization assay. (In fluorescence polarisation assays a small probe gives low polarisation when free and higher when bound to something large.)
Target sequence in this assay (Q13464 whole entry): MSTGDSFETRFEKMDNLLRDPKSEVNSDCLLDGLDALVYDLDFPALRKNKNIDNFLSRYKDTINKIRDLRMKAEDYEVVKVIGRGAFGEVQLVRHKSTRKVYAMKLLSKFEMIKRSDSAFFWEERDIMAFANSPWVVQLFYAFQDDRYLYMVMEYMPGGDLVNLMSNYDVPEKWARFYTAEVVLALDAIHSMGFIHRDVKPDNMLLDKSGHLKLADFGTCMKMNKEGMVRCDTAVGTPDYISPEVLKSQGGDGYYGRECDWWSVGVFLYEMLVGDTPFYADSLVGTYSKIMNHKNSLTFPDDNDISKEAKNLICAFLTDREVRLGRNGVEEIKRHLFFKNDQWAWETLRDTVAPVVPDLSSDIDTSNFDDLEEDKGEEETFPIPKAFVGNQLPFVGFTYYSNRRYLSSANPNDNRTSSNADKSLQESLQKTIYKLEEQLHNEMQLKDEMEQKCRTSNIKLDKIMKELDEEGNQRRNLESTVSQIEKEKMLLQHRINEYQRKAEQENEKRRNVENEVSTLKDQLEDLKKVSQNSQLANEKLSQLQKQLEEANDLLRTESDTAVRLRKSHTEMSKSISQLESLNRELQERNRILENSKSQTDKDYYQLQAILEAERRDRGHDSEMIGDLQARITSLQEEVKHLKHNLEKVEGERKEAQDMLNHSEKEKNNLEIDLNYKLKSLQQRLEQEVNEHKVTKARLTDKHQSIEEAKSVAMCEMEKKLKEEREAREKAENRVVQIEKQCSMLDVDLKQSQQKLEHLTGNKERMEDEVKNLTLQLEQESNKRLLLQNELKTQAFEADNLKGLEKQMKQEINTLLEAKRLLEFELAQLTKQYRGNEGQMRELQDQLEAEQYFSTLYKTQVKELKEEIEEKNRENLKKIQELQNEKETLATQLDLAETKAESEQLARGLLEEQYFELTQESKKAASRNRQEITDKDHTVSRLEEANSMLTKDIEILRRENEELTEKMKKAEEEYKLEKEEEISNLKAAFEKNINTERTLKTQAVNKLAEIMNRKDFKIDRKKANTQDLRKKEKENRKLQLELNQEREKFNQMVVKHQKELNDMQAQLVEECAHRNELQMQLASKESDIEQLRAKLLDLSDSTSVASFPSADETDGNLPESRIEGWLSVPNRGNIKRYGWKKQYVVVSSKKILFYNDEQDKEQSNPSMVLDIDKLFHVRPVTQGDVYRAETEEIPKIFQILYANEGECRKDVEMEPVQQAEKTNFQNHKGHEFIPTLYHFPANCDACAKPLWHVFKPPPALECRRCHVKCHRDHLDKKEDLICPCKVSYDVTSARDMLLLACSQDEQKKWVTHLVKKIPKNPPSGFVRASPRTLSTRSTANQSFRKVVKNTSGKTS
Data set [2] has as its target Voltage-gated inwardly rectifying potassium channel KCNH2 (Homo sapiens, UniProt Q12809). The data set can be described thus: Displacement of [3H]dofetilide from human ERG. In general terms: Displacement assays read how much labelled ligand stays bound in the presence of the test substance.
A short description of data set [3]: Oral bioavailability in C57 mouse. To be noted: in vivo. Type of data set: ADME, organism-based.
Data set [4] is described as follows: Plasma clearance in C57 mouse. Format: ADME, organism-based.
Data set [5] in a line: Volume of distribution at steady state in C57 mouse. To be noted: in vivo, read-out: Vdss. Format: ADME, organism-based.
Data set [6] is described as follows: Half life in C57 mouse. Type of data set: ADME, organism-based. To be noted: in vivo.
Data set [7] is described as follows: Dissociation constant, pKa of the compound. Type of data set: physicochemical.
Data set [8] addresses T1, Rho-associated protein kinase 1. The data set can be described thus: Displacement of Y-27632 from ROCK-1 assessed as drop in intensity of binding signals by NMR competition experiment. Further details: concentration or dose not given beside the values.
Target sequence in this assay (Q13464 2-1354 limits assumed): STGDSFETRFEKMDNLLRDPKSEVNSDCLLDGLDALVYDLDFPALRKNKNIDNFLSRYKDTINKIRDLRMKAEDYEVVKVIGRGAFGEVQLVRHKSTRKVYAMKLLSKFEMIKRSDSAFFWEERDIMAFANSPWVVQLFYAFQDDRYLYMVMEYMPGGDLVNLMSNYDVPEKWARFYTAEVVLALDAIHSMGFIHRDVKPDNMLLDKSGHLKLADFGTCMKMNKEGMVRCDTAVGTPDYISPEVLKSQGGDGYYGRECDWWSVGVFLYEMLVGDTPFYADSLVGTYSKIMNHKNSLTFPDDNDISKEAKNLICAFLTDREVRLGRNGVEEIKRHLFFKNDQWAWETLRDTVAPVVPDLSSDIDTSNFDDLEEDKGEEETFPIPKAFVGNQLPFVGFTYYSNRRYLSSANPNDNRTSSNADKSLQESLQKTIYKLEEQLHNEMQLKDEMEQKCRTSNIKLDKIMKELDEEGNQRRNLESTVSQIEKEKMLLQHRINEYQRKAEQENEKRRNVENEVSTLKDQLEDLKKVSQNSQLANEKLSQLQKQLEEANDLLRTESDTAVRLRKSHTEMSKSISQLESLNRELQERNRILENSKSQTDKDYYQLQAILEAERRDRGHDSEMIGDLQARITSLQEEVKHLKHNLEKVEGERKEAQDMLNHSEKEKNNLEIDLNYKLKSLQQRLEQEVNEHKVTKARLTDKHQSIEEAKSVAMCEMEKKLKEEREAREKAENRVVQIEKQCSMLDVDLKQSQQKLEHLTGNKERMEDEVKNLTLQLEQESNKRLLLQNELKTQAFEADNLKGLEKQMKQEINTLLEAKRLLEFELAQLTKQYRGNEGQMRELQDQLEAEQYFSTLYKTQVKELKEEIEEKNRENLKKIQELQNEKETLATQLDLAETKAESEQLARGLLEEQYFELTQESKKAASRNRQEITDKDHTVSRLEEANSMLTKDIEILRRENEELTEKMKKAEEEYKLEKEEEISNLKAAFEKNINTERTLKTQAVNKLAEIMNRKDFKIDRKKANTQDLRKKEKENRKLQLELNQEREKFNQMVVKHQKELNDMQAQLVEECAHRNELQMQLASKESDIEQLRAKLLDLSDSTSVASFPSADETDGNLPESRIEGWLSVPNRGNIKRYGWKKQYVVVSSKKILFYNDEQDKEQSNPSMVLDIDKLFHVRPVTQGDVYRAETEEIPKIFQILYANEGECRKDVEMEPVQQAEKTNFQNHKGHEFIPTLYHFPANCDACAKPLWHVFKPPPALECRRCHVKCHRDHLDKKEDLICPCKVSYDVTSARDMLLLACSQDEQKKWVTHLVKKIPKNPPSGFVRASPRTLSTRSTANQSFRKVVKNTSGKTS
The nature of data set [9]: Half life in human liver microsome. Type of data set: ADME. To be noted: liver microsomes. For orientation: Microsomes from liver hold many membrane-bound enzymes, among them those of drug oxidation.
Data set [10] is described as follows: Half life in rat liver microsome. Type of data set: ADME. To be noted: liver microsomes.
Data set [11] in a line: Half life in mouse liver microsome. Format: ADME. To be noted: liver microsomes.
Data set [12] can be described thus: Half life in rat hepatocyte. Type of data set: ADME, cell-based, Liver. To be noted: hepatocytes.
Data set [13] can be described thus: Permeability from apical to basolateral side of human Caco2 cells. To be noted: Caco-2, read-out: permeability. Type of data set: ADME, cell-based.
A short description of data set [14]: Permeability from basolateral to apical side of human Caco2 cells. Format: ADME, cell-based. To be noted: Caco-2, read-out: permeability.
The nature of data set [15]: Oral bioavailability in Wistar rat. To be noted: in vivo. Type of data set: ADME, organism-based.
Data set [16] can be described thus: Plasma clearance in Wistar rat. Type of data set: ADME, organism-based.
The nature of data set [17]: Volume of distribution at steady state in Wistar rat. Type of data set: ADME, organism-based. To be noted: in vivo, read-out: Vdss.
A short description of data set [18]: Half life in Wistar rat. To be noted: in vivo. Type of data set: ADME, organism-based.
Data set [19] addresses T1, Rho-associated protein kinase 1. Nature of the data set: Inhibition of ROCK-1.
Target sequence in this assay (Q13464 whole entry): as the sequence (Q13464 whole entry) above
The target in data set [20] is Rho-associated protein kinase 2 (Homo sapiens, UniProt O75116). Nature of the data set: Inhibition of ROCK-2 by Immobilized metal ion affinity-based fluorescence polarization assay.

Sequence of Voltage-gated inwardly rectifying potassium channel KCNH2 (Q12809 whole entry): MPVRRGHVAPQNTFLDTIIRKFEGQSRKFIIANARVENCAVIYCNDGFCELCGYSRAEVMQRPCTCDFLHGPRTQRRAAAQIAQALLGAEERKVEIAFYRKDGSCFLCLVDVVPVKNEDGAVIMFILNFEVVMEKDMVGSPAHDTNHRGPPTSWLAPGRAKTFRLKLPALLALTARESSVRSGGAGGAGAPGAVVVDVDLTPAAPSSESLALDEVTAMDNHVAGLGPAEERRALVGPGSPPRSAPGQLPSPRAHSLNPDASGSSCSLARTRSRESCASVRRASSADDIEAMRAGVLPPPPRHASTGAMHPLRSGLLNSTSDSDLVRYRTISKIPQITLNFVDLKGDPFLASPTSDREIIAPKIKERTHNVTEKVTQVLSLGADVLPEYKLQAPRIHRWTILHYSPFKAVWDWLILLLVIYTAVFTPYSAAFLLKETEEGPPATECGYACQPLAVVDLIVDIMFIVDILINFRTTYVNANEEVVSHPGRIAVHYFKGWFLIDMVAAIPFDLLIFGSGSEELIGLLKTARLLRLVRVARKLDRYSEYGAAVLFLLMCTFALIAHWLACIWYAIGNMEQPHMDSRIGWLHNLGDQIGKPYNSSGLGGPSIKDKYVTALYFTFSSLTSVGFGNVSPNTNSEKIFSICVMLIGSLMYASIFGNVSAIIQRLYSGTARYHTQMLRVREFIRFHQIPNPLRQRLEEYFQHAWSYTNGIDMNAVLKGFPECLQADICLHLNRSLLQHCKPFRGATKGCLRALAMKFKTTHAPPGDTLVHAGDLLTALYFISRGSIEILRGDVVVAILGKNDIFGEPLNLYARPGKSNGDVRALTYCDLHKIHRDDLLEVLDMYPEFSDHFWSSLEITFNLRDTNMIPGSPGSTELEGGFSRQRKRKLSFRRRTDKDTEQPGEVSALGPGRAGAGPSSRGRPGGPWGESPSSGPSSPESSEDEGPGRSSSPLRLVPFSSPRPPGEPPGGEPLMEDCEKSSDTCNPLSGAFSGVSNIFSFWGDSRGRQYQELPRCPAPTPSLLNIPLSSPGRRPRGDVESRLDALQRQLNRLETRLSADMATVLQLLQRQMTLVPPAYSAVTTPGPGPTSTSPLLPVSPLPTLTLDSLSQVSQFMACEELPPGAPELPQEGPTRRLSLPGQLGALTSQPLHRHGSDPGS

In general, IC50 refers to the point on the concentration scale where inhibition reaches its midpoint. Consider `Nc1nccc2cc(CNCCc3ccc(Cl)c(Cl)c3)ccc12`, for which, in data set [1], the IC50 is 776 nM.
One may read the Ki as a dissociation constant, usually derived from enzyme kinetics or from competition with a known ligand. As usually defined, the bioavailability is dose-corrected exposure relative to a reference, in per cent. One may read the clearance as the volume of plasma or blood freed of the substance per unit of time. The half-life is how long it takes for the measured level to halve. In data set [2], `O=S(=O)(c1cccc2c(O)nccc12)N1CCCNCC1` [HYDROXYFASUDIL] showed an inhibition constant (Ki) of 7940 nM. Further, the bioavailability in data set [3] was 57%. Further, the clearance in [4] was found to be 34 mL/min/kg. In addition, in data set [5], the Vd amounted to 2.4 L/kg. The same molecule showed a half-life in data set [6] of 45 min.
A word on the pKa: it is the pH at which an ionisable group is half protonated. In [1], `NCc1ccc2c(N)nccc2c1` gave an IC50 of 7760 nM. In data set [7], this molecule came in with a pKa of 7.6.
For `Nc1ncnc2ccccc12`, the Activity in [8] is above 80%.
As to `c1ccc2[nH]ncc2c1`, the Activity in data set [8] is above 80%.
`COc1ccc(CCNCc2ccc3c(N)nccc3c2)cc1` showed an IC50 in data set [1] of 1000 nM.
On the same count and under the same terms, the value for `Cc1ccc(CCNCc2ccc3c(N)nccc3c2)cc1` was 813 nM.
In data set [1], `Nc1nccc2cc(CNCc3cccc(Oc4ccccc4)c3)ccc12` showed an IC50 of 575 nM.
Turning to `NC(=O)c1ccccc1O`, the Activity in [8] amounted to 34%.
For `Nc1nccc2cc(O[C@H]3CCCN(Cc4ccccc4)C3)ccc12`, the half-life in [9] was 12 min; in data set [10], 22 min; in data set [11], above 120 min; in data set [12] it was 27 min; in data set [18] it was 492 min. Further, in data set [13], the Papp A→B is 2.2 ×10⁻⁶ cm/s. Moreover, the Papp B→A in data set [14] was found to be 1.5 ×10⁻⁶ cm/s. Further, in [15], the bioavailability is 7%. The clearance in data set [16] was 295 mL/min/kg. Also, the Vd in data set [17] worked out at 8.2 L/kg.
As to `Nc1nccc2cc(CNCCOc3ccccc3)ccc12`, it took 589 nM to reach half-maximal inhibition in [1] (IC50).
Regarding `O=C(Nc1nccs1)c1ccncc1`, the Activity in data set [8] is above 80%.
In [1], `Nc1nccc2cc(CNCCNc3ccccc3)ccc12` gave an IC50 of 1480 nM.
As for `Nc1nccc2cc(CNCc3ccc4ccccc4c3)ccc12`, the IC50 in [1] was 3470 nM.
Consider `Nc1nccc2cc(CNCCc3cccc(C(F)(F)F)c3)ccc12`, for which, in data set [1], half-maximal inhibition (IC50) was put at 1700 nM.
In data set [3], `O=S(=O)(c1cccc2cnccc12)N1CCCNCC1` [FASUDIL] registered a bioavailability of 3.6%. Moreover, the Vd in data set [5] was 1.8 L/kg.
For the molecule `CC1(C)C(=O)Nc2ccccc21`, the Activity in data set [8] was 25%.
In data set [1], `CS(=O)(=O)N1CCC[C@H](Oc2ccc3c(N)nccc3c2)C1` gave an IC50 above 100000 nM.
`Nc1nccc2cc(OC3CCN(Cc4ccccc4)CC3)ccc12` had a concentration for half-maximal inhibition (IC50) in data set [1] of 4270 nM.
Regarding `c1cc(N2CCOCC2)ccn1`, the Activity in data set [8] was above 80%.
`Nc1nccc2cc(CNCc3ccccc3)ccc12`: it took 6760 nM to reach half-maximal inhibition in data set [1] (IC50).
The same measure, in the same setting: in the case of `CN(CCc1ccccc1)Cc1ccc2c(N)nccc2c1` it was 427 nM.
With `c1cc(-c2cnco2)ccn1`, the Activity in data set [8] is above 80%.
Still for that read-out and setting: the value for `CC1=NC(C(C)C)CO1` (configuration not stated) was 40%; that for `c1ccc(-n2cccc2)nc1` was 30%; that for `c1ccn2ccnc2c1` was 38%.
Take `c1ccc2[nH]cnc2c1`: the Activity in data set [8] came to 64%.
Turning to `Nc1nccc2cc(OC3CCNCC3)ccc12`, in [1], the half-maximal inhibitory concentration (IC50) is 3630 nM.
As for `Cn1nc(C(C)(C)C)cc1N`, in data set [8], the Activity came to 20%.
Still for that read-out and setting: the value for `c1ccc2cnccc2c1` was 70%.
Same read-out and setting: in the case of `Nc1nc2c(c(=O)[nH]1)CC=N2` it was 68%.
On the same count and under the same terms, in the case of `CC(=O)c1ccccc1` it was 60%.
Consider `Nc1nccc2cc(CNCCc3ccncc3)ccc12`, for which, in data set [1], the IC50 is 1860 nM.
For `C[C@@H](N)[C@H]1CC[C@H](C(=O)Nc2ccncc2)CC1` [Y-27632], the bioavailability in data set [3] stood at 52%. This molecule also gave a clearance in data set [4] of 50.9 mL/min/kg. Also, the Vd in data set [5] stood at 3.8 L/kg. This molecule also had a half-life in data set [6] of 100 min.
Take `Nc1ccnc2ccncc12`: the Activity in data set [8] was above 80%.
With `Nc1nccc2cc(CNCCc3ccccc3)ccc12`, the 50% inhibitory concentration (IC50) in [1] and in [20] was 1290 nM each time. For the same molecule, the Ki in data set [19] is 63.1 nM; in data set [2], 3160 nM.
